In PMC7497641, “Neurotropic activity and safety of methylene-cycloalkylacetate (MCA) derivative 3-(3-allyl-2-methylenecyclohexyl) propanoic acid” (ACS Chemical Neuroscience, 2020):

Legend:
[1] = molecular target: Nuclear Hormone Glucocorticoid Receptor (GR) (Homo sapiens, UniProt P04150); assay: SAFETYscan Nuclear Hormone Receptor assay; assay type: cell-based; settings: read-out: RC50 (the source's name)
[2] = molecular target: Histamine Receptor H2 (HRH2) (Homo sapiens, UniProt P25021); assay: SAFETYscan GPCR cAMP; assay type: cell-based; settings: read-out: RC50 (the source's name)
[3] = molecular target: T1, Adrenergic Receptor β1 (ADRB1) (Homo sapiens, UniProt P08588); assay: SAFETYscan GPCR cAMP; assay type: cell-based; settings: read-out: RC50 (the source's name)
T1 construct: host or cells: cAMP Hunter cell lines

[4] = molecular target: T2, Acetylcholinesterase (AChE) (Homo sapiens, UniProt P22303); assay: SAFETYscan Enzymatic assay; assay type: biochemical
T2 construct: purchased R&D Systems

[5] = molecular target: T3, 5-Hydroxy-tryptamine (Serotonin) Receptor 3A (HTR3A) (Homo sapiens, UniProt P46098); assay: SAFETYscan Ion channel assay; assay type: cell-based
T3 construct: host or cells: unnamed DiscoverX cell line

[6] = molecular target: Adrenergic Receptor β2 (ADRB2) (Homo sapiens, UniProt P07550); assay: SAFETYscan GPCR cAMP; assay type: cell-based
[7] = molecular target: T4, Cyclooxygenase 2 (COX 2) (Homo sapiens, UniProt P35354); assay: biochemical; settings: Inhibitor, Enzymatic
T4 construct: purchased BPS Bioscience

[8] = molecular target: T5, Cyclooxygenase 1 (COX 1) (Homo sapiens, UniProt P23219); assay: biochemical; settings: Inhibitor, Enzymatic
T5 construct: purchased BPS Bioscience

[9] = molecular target: Arginine Vasopressin Receptor 1A (AVPR1A) (Homo sapiens, UniProt P37288); assay: SAFETYscan GPCR Calcium Flux; assay type: cell-based; settings: read-out: RC50 (the source's name)
[10] = molecular target: T6, Muscarinic acetylcholine Receptor M2 (CHRM2) (Homo sapiens, UniProt P08172); assay: SAFETYscan GPCR cAMP; assay type: cell-based
T6 construct: host or cells: cAMP Hunter cell lines

[11] = molecular target: T7, N-methyl-D-aspartate (NMDA) Glutamate Receptor 1A/2B (NMDAR (1A/2B)) (Homo sapiens, UniProt Q05586+Q13224); assay: SAFETYscan Ion channel assay; assay type: cell-based
T7 construct: host or cells: unnamed DiscoverX cell line

[12] = molecular target: Adenosine Receptor A2A (ADORA2A) (Homo sapiens, UniProt P29274); assay: SAFETYscan GPCR Calcium Flux; assay type: cell-based; settings: for MCA-13 Max. Responce: 10 μM
[13] = molecular target: Voltage-gated L-type calcium channel (CAV1.2) (Homo sapiens, UniProt Q13936); assay: cell-based
[14] = molecular target: T8, Insulin Receptor (tyrosine kinase) (INSR) (Homo sapiens, UniProt P06213); assay: SAFETYscan KINOMEscan binding assay; settings: Inhibitor
T8 construct: host or cells: E. coli BL21-derived host (T7 phage) or HEK-293

[15] = tested on: PGE2 production in PC12 cells; assay: PGE2 production measured by ELISA; settings: different concentrations of HU-MCA-13, dose-dependent; 24 h
[16] = molecular target: T9, Vascular endothelial growth factor receptor 2 (KDR tyrosine kinase) (VEGFR2) (Homo sapiens, UniProt P35968); assay: SAFETYscan KINOMEscan binding assay; settings: Inhibitor
T9 construct: host or cells: E. coli BL21-derived host (T7 phage) or HEK-293

[17] = molecular target: T10, Opioid Receptor Kappa 1 (OPRK1) (Homo sapiens, UniProt P41145); assay: SAFETYscan GPCR cAMP; assay type: cell-based
T10 construct: host or cells: cAMP Hunter cell lines

[18] = molecular target: Muscarinic acetylcholine Receptor M1 (CHRM1) (Homo sapiens, UniProt P11229); assay: cell-based; settings: Calcium Flux, read-out: RC50 (the source's name)
[19] = molecular target: Endothelin Receptor Type A (EDNRA) (Homo sapiens, UniProt P25101); assay: SAFETYscan GPCR Calcium Flux; assay type: cell-based; settings: read-out: RC50 (the source's name)
[20] = molecular target: T11, cAMP-specific 3′,5′-cyclic phospho-diesterase 4D2 (PDE4D2) (Homo sapiens, UniProt Q08499); assay: SAFETYscan Enzymatic assay; assay type: biochemical; settings: Inhibitor
T11 construct: purchased Signal Chem

[21] = Acute (single-dose) oral toxicity, pathology of major organs; assay type: in vivo; settings: 2000 mg/kg orally
Experimental: Prioritizing compounds with a lower chance of causing toxicity, early in the drug discovery process, would help in the drug development process.[30] With this consideration we conducted acute (single-dose) toxicity study[31] to determine the short-term adverse pathological effects on major mice organs of HU-MCA-13 when administered in mice in a single dose, for a period of 24 h. One group of 5 mice received HU-MCA-13 orally at a dose of 2000 mg/kg, dissolved in a nano-emulsifying drug delivery system[32] in a bolus of 0.4 mL/mouse. After 24 h exposure, the animals were sacrificed, and organs were harvest for pathology analyses. […] This finding was not related to the tested compound and was considered as an accidental finding. This information on the lack of acute toxicity of HU-MCA-13 may predict the safety of this compound in future therapeutic evaluation.
C57Bl/6 mice, 8 weeks old, obtained from Envigo animal breeding center were used in the study. All experiments were approved by the Institutional Animal Care and Use Committee and performed according to OECD guidelines for testing of chemicals.[53] Organs were harvested from mice that were administered with MCA-13 for the detection of possible toxicological lesions in the framework of a safety assessment. […]

[22] = 10 μM, read-out: MCA-13 Max. Responce
[23] = read-out: RC50 (the source's name)

Sequence of Adenosine Receptor A2A (ADORA2A) (P29274 whole entry): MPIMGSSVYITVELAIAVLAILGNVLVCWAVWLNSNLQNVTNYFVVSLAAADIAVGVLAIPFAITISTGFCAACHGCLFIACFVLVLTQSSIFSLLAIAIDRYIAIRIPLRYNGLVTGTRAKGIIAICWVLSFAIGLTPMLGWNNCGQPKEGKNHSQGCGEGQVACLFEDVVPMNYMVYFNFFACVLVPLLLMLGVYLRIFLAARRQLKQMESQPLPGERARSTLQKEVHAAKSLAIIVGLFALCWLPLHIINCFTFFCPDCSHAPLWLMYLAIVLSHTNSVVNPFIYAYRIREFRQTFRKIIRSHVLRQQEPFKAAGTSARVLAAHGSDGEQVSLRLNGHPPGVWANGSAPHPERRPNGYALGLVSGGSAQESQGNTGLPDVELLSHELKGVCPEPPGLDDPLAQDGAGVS
T9 sequence (P35968 20-1356): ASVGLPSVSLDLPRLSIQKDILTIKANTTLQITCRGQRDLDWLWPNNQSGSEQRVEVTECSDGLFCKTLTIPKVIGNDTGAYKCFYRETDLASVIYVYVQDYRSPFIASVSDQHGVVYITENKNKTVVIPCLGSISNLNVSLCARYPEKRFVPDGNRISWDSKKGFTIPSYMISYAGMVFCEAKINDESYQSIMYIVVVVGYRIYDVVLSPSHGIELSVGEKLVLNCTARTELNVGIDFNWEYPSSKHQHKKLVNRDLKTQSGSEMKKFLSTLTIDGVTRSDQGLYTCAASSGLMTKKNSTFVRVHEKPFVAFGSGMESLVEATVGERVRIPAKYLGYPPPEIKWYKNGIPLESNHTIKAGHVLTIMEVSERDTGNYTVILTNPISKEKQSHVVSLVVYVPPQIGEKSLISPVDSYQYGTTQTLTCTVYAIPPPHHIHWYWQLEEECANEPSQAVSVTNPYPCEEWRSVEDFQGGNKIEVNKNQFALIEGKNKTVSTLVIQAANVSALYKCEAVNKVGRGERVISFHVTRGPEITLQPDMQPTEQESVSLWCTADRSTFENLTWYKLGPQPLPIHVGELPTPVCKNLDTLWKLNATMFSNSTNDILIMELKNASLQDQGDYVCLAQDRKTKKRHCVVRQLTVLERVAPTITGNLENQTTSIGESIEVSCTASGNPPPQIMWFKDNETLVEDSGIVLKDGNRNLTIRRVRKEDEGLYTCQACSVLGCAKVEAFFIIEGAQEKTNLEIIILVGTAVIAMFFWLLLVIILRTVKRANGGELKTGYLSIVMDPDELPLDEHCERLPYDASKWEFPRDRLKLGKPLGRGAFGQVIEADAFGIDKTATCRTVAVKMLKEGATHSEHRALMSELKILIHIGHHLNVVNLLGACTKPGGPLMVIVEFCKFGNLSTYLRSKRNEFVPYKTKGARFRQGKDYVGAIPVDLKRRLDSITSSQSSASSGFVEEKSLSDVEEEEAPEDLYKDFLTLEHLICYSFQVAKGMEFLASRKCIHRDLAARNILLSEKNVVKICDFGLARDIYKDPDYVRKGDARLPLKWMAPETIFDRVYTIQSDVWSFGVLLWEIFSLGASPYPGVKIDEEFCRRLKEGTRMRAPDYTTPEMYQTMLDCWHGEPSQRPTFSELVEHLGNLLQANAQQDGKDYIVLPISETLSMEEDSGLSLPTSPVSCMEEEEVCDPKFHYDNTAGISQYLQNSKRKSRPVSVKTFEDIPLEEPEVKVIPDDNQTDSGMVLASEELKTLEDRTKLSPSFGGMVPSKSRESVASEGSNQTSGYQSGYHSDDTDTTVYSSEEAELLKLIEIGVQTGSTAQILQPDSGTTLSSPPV
T10 sequence (P41145 whole entry): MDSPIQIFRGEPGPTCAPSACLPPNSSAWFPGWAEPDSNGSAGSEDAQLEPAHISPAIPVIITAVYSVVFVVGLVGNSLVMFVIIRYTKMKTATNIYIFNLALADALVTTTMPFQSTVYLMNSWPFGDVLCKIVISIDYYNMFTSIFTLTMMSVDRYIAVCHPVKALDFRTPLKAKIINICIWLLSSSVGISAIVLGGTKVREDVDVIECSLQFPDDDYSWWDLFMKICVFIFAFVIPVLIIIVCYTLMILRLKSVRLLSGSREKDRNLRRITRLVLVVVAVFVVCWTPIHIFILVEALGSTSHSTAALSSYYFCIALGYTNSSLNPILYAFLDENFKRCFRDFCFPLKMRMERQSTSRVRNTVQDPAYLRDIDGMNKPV
T4 sequence (P35354 18-604): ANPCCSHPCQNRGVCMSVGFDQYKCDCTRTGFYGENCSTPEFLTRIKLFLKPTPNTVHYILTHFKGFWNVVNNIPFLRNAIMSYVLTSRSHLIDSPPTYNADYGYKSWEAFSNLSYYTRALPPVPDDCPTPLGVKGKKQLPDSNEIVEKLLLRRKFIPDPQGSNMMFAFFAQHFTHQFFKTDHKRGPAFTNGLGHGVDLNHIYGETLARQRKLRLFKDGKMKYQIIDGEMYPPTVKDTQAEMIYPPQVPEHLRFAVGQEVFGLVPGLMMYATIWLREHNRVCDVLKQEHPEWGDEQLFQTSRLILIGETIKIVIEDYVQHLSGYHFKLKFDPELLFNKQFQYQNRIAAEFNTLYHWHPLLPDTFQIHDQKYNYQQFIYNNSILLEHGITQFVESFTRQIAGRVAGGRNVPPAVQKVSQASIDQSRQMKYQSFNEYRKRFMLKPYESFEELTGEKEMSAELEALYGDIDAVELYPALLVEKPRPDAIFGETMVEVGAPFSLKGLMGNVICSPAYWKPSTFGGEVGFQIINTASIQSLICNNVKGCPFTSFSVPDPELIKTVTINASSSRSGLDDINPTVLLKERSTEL
T3 sequence (P46098 24-478): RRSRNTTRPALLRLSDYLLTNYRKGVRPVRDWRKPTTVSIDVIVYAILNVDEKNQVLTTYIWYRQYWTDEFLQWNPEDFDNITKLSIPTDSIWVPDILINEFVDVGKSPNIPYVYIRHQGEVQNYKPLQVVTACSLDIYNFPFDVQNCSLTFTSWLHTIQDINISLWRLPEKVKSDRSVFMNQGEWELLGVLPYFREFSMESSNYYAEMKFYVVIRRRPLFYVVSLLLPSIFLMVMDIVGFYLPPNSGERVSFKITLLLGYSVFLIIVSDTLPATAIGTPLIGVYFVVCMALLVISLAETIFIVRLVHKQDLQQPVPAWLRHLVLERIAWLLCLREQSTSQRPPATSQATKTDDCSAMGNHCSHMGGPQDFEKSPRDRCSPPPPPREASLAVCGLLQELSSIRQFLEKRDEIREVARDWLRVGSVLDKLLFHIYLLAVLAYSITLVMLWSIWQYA
Sequence of Histamine Receptor H2 (HRH2) (P25021 whole entry): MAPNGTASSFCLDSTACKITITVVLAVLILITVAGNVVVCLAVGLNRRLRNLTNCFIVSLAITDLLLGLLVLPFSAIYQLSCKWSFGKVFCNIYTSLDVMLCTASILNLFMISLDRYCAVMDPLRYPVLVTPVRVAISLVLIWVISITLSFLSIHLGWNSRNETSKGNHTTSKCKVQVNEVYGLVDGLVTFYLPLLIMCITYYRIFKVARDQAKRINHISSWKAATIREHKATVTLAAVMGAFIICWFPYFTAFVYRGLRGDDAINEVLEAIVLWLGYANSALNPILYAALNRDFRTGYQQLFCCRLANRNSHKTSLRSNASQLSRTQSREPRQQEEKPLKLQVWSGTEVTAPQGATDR
T6 sequence (P08172 whole entry): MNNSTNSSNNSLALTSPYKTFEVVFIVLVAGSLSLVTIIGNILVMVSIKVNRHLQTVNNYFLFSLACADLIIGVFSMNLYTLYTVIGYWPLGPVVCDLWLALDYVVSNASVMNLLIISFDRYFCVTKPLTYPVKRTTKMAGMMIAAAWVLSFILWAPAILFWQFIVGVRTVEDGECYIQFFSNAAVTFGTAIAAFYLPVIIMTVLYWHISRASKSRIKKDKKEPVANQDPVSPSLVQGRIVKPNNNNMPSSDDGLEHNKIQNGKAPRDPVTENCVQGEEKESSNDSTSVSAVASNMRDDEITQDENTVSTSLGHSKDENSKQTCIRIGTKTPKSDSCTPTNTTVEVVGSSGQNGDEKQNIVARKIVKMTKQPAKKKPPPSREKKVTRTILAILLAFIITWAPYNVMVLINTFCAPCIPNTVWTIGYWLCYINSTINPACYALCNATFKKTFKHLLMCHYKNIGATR
T11 sequence (Q08499 303-809): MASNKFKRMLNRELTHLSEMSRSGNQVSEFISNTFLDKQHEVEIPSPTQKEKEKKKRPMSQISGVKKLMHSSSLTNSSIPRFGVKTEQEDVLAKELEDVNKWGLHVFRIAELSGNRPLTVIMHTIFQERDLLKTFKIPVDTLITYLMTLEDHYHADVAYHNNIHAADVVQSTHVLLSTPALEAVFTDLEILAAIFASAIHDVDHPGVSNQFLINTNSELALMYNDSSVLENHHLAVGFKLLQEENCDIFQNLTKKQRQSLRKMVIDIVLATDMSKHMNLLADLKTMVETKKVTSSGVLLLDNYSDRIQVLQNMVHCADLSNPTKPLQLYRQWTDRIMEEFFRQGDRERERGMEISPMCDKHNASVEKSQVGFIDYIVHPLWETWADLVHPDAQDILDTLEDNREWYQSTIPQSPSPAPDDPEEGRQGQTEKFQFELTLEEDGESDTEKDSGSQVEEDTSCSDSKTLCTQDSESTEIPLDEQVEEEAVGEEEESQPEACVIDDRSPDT
Sequence of Endothelin Receptor Type A (EDNRA) (P25101 21-427): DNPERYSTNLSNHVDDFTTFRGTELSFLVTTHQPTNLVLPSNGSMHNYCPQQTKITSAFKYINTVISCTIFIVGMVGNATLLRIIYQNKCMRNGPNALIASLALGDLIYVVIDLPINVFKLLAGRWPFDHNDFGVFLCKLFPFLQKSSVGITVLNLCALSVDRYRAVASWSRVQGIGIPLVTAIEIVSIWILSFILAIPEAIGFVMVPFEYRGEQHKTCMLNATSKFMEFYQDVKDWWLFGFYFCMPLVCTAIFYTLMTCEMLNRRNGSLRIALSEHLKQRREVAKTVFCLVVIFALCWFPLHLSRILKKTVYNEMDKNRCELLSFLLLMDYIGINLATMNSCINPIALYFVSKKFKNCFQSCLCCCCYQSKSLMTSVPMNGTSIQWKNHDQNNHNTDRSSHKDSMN

## C=CCC1CCCC(CCC(=O)O)C1=C (stereo not drawn) [HU-MCA-13, 3-(3-allyl-2-methylenecyclohexyl)propanoic acid]
[1]; Agonist
  EC50: > 10 µM
[1]; Antagonist
  IC50: > 10 µM
[2]; Agonist
  EC50: > 10 µM
[2]; Antagonist
  IC50: > 10 µM
[3]; Agonist
  EC50: > 10 µM
[3]; Antagonist
  IC50: > 10 µM
[4]
  IC50: > 10 µM
[4]; 10 μM, Inhibitor, Enzymatic, read-out: MCA-13 Max. Responce
  inhibition at 10 µM: 4.27%
[5]
  EC50: > 10 µM
  IC50: > 10 µM
[6]
  EC50: > 10 µM
  IC50: > 10 µM
[7]; [22]
  inhibition at 10 µM: 7.99%
[7]; [23]
  IC50: > 10 µM
[8]; [22]
  inhibition at 10 µM: 25%
[8]; [23]
  IC50: > 10 µM
[9]; Agonist
  EC50: > 10 µM
[9]; Antagonist
  IC50: > 10 µM
[10]
  EC50: > 10 µM
  IC50: > 10 µM
[11]
  EC50: > 10 µM
  IC50: > 10 µM
[12]; Agonist
  MCA-13 Max. Responce: 0%
[12]; Antagonist
  MCA-13 Max. Responce: 4.09%
[12]; Agonist, read-out: RC50 (the source's name)
  EC50: > 10 µM
[12]; Antagonist, read-out: RC50 (the source's name)
  IC50: > 10 µM
[13]
  IC50: > 10 µM
[14]; [22]
  inhibition at 10 µM: 3.22%
[14]; [23]
  IC50: > 10 µM
[15]
  increase of PGE2 production over control, untreated cultures: 3–6 fold
[16]; [22]
  inhibition at 10 µM: 21.7%
[16]; [23]
  IC50: > 10 µM
[17]
  EC50: > 10 µM
  IC50: > 10 µM
[18]; Agonist
  EC50: > 10 µM
[18]; Antagonist
  IC50: > 10 µM
[19]; Agonist
  EC50: > 10 µM
[19]; Antagonist
  IC50: > 10 µM
[20]; [22]
  inhibition at 10 µM: 0%
[20]; [23]
  IC50: > 10 µM
[21]; single dose in nano-emulsifying drug delivery system, 24 h
  cytotoxic lesions in all organs (histopathology): no cytotoxic lesions were found
[21]; in three animals, considered accidental, not related to the tested compound
  finding in last part of colon, rectum and adjacent anal unhaired skin: severe purulent, necrotizing inflammation
